Data reported in BindingDB's records for doi:10.1002/chir.1172 (The Royal Danish School of Pharmacy, 2001).
“And” between values parts separate entries of the source, which are not always exact repeats. Equal values may be shown once.

Experiments:
[1] = target: Glutamate receptor ionotropic, NMDA 1 (Rattus norvegicus, UniProt P35439)
Glutamate receptor 3 = Glutamate receptor 3 (Rattus norvegicus, UniProt P19492)
[2] = target: Glutamate receptor ionotropic, kainate 1 (Rattus norvegicus, UniProt P22756)
Sequence of Glutamate receptor ionotropic, kainate 1 (P22756 whole entry): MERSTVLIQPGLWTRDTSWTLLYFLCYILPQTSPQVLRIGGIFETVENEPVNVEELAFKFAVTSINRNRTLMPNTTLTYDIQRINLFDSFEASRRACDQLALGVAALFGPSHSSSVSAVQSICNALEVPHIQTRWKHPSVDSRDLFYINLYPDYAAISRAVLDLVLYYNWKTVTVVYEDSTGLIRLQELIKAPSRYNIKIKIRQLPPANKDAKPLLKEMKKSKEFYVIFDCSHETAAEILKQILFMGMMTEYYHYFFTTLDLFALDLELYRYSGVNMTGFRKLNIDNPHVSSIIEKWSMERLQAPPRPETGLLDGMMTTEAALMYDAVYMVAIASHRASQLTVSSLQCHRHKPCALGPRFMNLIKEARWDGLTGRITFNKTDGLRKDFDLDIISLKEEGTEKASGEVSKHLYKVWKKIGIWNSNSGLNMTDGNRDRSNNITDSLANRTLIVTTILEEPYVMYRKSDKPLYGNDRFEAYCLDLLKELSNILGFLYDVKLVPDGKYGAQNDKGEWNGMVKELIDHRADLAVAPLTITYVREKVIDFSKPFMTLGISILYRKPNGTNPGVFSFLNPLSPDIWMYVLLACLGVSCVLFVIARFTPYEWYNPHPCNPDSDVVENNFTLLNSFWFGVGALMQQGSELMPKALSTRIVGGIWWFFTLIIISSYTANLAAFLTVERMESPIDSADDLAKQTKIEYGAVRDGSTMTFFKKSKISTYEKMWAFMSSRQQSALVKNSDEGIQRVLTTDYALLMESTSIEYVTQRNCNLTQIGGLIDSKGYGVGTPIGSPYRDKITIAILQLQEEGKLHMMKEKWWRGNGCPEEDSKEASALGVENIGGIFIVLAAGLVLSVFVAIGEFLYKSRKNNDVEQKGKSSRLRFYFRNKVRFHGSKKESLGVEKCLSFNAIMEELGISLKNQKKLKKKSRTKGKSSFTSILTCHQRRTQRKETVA

Sequence of Glutamate receptor 3 (P19492 whole entry): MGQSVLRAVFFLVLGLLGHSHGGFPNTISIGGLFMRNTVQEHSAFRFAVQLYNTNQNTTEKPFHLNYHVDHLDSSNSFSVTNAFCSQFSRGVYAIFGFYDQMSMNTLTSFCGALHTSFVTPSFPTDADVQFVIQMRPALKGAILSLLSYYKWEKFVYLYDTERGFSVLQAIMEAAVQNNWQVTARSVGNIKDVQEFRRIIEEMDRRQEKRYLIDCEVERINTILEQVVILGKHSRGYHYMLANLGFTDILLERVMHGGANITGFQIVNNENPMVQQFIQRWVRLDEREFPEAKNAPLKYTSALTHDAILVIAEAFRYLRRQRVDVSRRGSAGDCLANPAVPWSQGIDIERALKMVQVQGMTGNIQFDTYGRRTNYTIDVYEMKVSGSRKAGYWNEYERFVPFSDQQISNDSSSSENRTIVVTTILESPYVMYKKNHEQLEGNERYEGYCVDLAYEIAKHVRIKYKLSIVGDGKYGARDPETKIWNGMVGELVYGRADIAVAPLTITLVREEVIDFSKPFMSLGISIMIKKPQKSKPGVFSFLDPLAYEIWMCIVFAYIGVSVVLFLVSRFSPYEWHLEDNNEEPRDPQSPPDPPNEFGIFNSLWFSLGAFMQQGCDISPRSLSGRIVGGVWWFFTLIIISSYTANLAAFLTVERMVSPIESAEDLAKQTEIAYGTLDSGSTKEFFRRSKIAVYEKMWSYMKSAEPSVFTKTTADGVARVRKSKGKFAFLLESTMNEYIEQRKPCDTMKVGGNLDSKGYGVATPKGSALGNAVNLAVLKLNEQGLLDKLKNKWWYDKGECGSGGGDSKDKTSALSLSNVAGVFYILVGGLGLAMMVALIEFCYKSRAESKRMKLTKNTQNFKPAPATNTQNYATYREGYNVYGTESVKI

Ki [1]	Ki (Glutamate receptor 3)	Ki [2]	SMILES
> 10 µM	0.025 µM	3.6 µM	Cc1onc(C(=O)O)c1C[C@H](N)C(=O)O
4.5 µM	9.4 µM	> 10 µM	N[C@@H](Cc1conc1C(=O)O)C(=O)O [(R)-Demethyl-ACPA]
> 10 µM	0.02 µM	6.3 µM	Cc1onc(C(=O)O)c1CC(N)C(=O)O [(S)-2-AMINO-3-(3-CARBOXY-5-METHYLISOXAZOL-4-YL)PROPIONIC ACID]
> 10 µM		> 10 µM	Cc1onc(C(=O)O)c1C[C@@H](N)C(=O)O [(R)-ACPA]
> 10 µM	0.039 µM and 0.1 µM		N[C@@H](Cc1conc1C(=O)O)C(=O)O [Demethyl-ACPA]
> 10 µM	0.27 µM	> 10 µM	C[C@H](NC(=O)CNC(=O)[C@@H](NC(=O)[C@H](Cc1ccccc1)NC(=O)CNC(=O)CNC(=O)[C@@H](N)Cc1ccccc1)[C@@H](C)O)C(=O)N[C@@H](CCCN=C(N)N)C(=O)N[C@@H](CCCCN)C(=O)N[C@@H](CO)C(=O)N[C@@H](C)C(=O)N[C@@H](CCCN=C(N)N)C(=O)N[C@@H](CCCCN)C(N)=O [OFQ/N (1-11),[Tyr10]]
